According to PMC10471458 (BMB Reports, 2023):

Target: T1, Glutathione S-transferase omega 1 (mGstO1) (Mus musculus, UniProt O09131)
T1 sequence (O09131 2-240): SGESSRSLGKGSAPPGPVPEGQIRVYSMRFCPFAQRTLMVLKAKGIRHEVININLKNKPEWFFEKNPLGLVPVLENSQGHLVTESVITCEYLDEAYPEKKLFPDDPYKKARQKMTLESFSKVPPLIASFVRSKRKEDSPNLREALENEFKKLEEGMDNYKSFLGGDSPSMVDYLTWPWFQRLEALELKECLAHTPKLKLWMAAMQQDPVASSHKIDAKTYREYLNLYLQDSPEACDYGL
Assay type: biochemical

N[C@@H](CCC(=O)N[C@@H](CSCC(=O)c1ccc([N+](=O)[O-])cc1)C(=O)NCC(=O)O)C(=O)O [4-NPG, 4-nitrophenacyl glutathione]
spectrophotometric assay at 305 nm of 4-NPG reduction to 4-nitroacetophenone by: 10 U/mg
